Measurements taken from PubChem BioAssay (NCI).
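In this assay, cells in 96-well plates receive the compound at five concentrations for 48 hours. Endpoints are linearly interpolated between the surrounding concentrations. Here, GI50 denotes the concentration required for 50% inhibition of growth. TGI is the concentration that stops growth completely.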

What was measured:
Assay in all cases: NCI anticancer screen, dose series, 48 h
786-0 renal = test system: 786-0 renal
A549 NSCLC = test system: A549 NSCLC
ACHN renal = test system: ACHN renal
BT-549 breast = test system: BT-549 breast
CAKI-1 renal = test system: CAKI-1 renal
COLO 205 colon = test system: COLO 205 colon
DU-145 prostate = test system: DU-145 prostate
EKVX NSCLC = test system: EKVX NSCLC
HCT-116 colon = test system: HCT-116 colon
HCT-15 colon = test system: HCT-15 colon
HL-60(TB) leukemia = test system: HL-60(TB) leukemia
HOP-62 NSCLC = test system: HOP-62 NSCLC
HOP-92 NSCLC = test system: HOP-92 NSCLC
HS 578T breast = test system: HS 578T breast
IGROV1 ovarian = test system: IGROV1 ovarian
K-562 leukemia = test system: K-562 leukemia
KM12 colon = test system: KM12 colon
LOX IMVI melanoma = test system: LOX IMVI melanoma
M14 melanoma = test system: M14 melanoma
MCF7 breast = test system: MCF7 breast
MDA-MB-231 breast = test system: MDA-MB-231 breast
MDA-MB-435 = test system: MDA-MB-435
MOLT-4 leukemia = test system: MOLT-4 leukemia
NCI-H226 lung = test system: NCI-H226 lung
NCI-H23 lung = test system: NCI-H23 lung
NCI-H460 lung = test system: NCI-H460 lung
NCI-H522 lung = test system: NCI-H522 lung
NCI/ADR-RES ovarian = test system: NCI/ADR-RES ovarian
OVCAR-3 ovarian = test system: OVCAR-3 ovarian
OVCAR-4 ovarian = test system: OVCAR-4 ovarian
OVCAR-5 ovarian = test system: OVCAR-5 ovarian
OVCAR-8 ovarian = test system: OVCAR-8 ovarian
PC-3 prostate = test system: PC-3 prostate
RPMI-8226 leukemia = test system: RPMI-8226 leukemia
RXF 393 renal = test system: RXF 393 renal
SF-268 CNS = test system: SF-268 CNS
SF-295 CNS = test system: SF-295 CNS
SF-539 CNS = test system: SF-539 CNS
SK-MEL-2 melanoma = test system: SK-MEL-2 melanoma
SK-MEL-28 melanoma = test system: SK-MEL-28 melanoma
SK-MEL-5 melanoma = test system: SK-MEL-5 melanoma
SK-OV-3 ovarian = test system: SK-OV-3 ovarian
SN12C renal = test system: SN12C renal
SNB-19 CNS = test system: SNB-19 CNS
SR leukemia = test system: SR leukemia
SW-620 colon = test system: SW-620 colon
TK-10 renal = test system: TK-10 renal
U251 CNS = test system: U251 CNS
UACC-257 melanoma = test system: UACC-257 melanoma
UACC-62 melanoma = test system: UACC-62 melanoma
UO-31 renal = test system: UO-31 renal

## COc1ccc(-c2c(C#N)c(N)nc3c2COc2ccc(F)cc2-3)cc1OC
786-0 renal
  GI50: 16.9 µM
  TGI: 46.2 µM
A549 NSCLC
  GI50: 3.81 µM
  TGI: 14.2 µM
ACHN renal
  GI50: 1.4 µM
  TGI: 5.44 µM
BT-549 breast
  GI50: 10.1 µM
  TGI: 26.5 µM
CAKI-1 renal
  GI50: 2.18 µM
  TGI: 8.15 µM
COLO 205 colon
  GI50: 5.79 µM
  TGI: > 100 µM
DU-145 prostate
  GI50: 8.14 µM
  TGI: 23.9 µM
EKVX NSCLC
  GI50: 4.91 µM
  TGI: 24.8 µM
HCT-116 colon
  GI50: 6.66 µM
  TGI: 37.3 µM
HCT-15 colon
  GI50: 8.29 µM
  TGI: 52.9 µM
HL-60(TB) leukemia
  GI50: 23.2 µM
  TGI: 92.4 µM
HOP-62 NSCLC
  GI50: 14.7 µM
  TGI: 39 µM
HOP-92 NSCLC
  GI50: 18 µM
  TGI: > 100 µM
HS 578T breast
  GI50: 7.55 µM
  TGI: 38.5 µM
IGROV1 ovarian
  GI50: 8.88 µM
  TGI: 65.1 µM
K-562 leukemia
  GI50: 53.6 µM
  TGI: > 100 µM
KM12 colon
  GI50: 5.83 µM
  TGI: > 100 µM
LOX IMVI melanoma
  GI50: 2.29 µM
  TGI: 9.84 µM
M14 melanoma
  GI50: 22 µM
  TGI: 98.9 µM
MCF7 breast
  GI50: 17.6 µM
  TGI: > 100 µM
MDA-MB-231 breast
  GI50: 2.53 µM
  TGI: 9.63 µM
MDA-MB-435
  GI50: 10.7 µM
  TGI: 37.4 µM
MOLT-4 leukemia
  GI50: > 100 µM
  TGI: > 100 µM
NCI-H226 lung
  GI50: 4.54 µM
  TGI: 20 µM
NCI-H23 lung
  GI50: 14.1 µM
  TGI: 30.5 µM
NCI-H460 lung
  GI50: 9.03 µM
  TGI: > 100 µM
NCI-H522 lung
  GI50: 18.9 µM
  TGI: > 100 µM
NCI/ADR-RES ovarian
  GI50: 17.4 µM
  TGI: 42.2 µM
OVCAR-3 ovarian
  GI50: 2.21 µM
  TGI: 6.41 µM
OVCAR-4 ovarian
  GI50: 6.82 µM
  TGI: 63.7 µM
OVCAR-5 ovarian
  GI50: 17.2 µM
  TGI: 33.6 µM
OVCAR-8 ovarian
  GI50: 3.62 µM
  TGI: 13.2 µM
PC-3 prostate
  GI50: 17.1 µM
  TGI: > 100 µM
RPMI-8226 leukemia
  GI50: 6.61 µM
  TGI: > 100 µM
RXF 393 renal
  GI50: 20.3 µM
  TGI: 51.6 µM
SF-268 CNS
  GI50: 15.8 µM
  TGI: 56.4 µM
SF-295 CNS
  GI50: 3.27 µM
  TGI: 10.9 µM
SF-539 CNS
  GI50: 3.38 µM
  TGI: 11 µM
SK-MEL-2 melanoma
  GI50: 34.5 µM
  TGI: > 100 µM
SK-MEL-28 melanoma
  GI50: 29.9 µM
  TGI: > 100 µM
SK-MEL-5 melanoma
  GI50: 12 µM
  TGI: 37.5 µM
SK-OV-3 ovarian
  GI50: 8.44 µM
  TGI: 36.8 µM
SN12C renal
  GI50: 6.22 µM
  TGI: 20.9 µM
SNB-19 CNS
  GI50: 4.37 µM
  TGI: 23.7 µM
SR leukemia
  GI50: 2.15 µM
  TGI: > 100 µM
SW-620 colon
  GI50: 9.21 µM
  TGI: > 100 µM
TK-10 renal
  GI50: 3.35 µM
  TGI: 24 µM
U251 CNS
  GI50: 10.3 µM
  TGI: 22.7 µM
UACC-257 melanoma
  GI50: 18.9 µM
  TGI: 60.5 µM
UACC-62 melanoma
  GI50: 7.99 µM
  TGI: 23 µM
UO-31 renal
  GI50: 17.3 µM
  TGI: 57.9 µM
